The source made the active and inactive calls. No cut-off for these calls is given here. Non-standard residues stand in square brackets, D forms with d. Residues, ends and D or L forms follow the SMILES beside them. *: point of attachment. X1 = CC[C@@H](C(=O)O)C1CC[C@H](C)C([C@@H](C)[C@H](O)[C@H](C)C(=O)[C@H](CC)C2O[C@]3(C=C[C@@H](NC(=O)CCS*)[C@]4(CC[C@@](C)(C5CC[C@](O)(CC)[C@H](C)O5)O4)O3)[C@H](C)C[C@@H]2C)O1; Sar = CNCC(=O)O
Experiments:
A2780 [1] = assay: Antitumor activity against CD44 negative human A2780 cells co-cultured with CD44 positive human SK-OV-3 cells in DMEM medium at 4:6 ratio assessed as induction of cell death incubated for 72 hrs by enzymatic immunoassay; assay type: functional, cell-based; conditions: dose 2.5-20 µM
A2780 [2] = assay: Antitumor activity against CD44 negative human A2780 cells co-cultured with CD44 positive human SK-OV-3 cells in DMEM medium at 5:5 ratio assessed as induction of cell death incubated for 72 hrs by enzymatic immunoassay; assay type: functional, cell-based; conditions: dose 2.5-20 µM
A2780 [3] = assay: Antitumor activity against CD44 negative human A2780 cells expressing GFP co-cultured with CD44 positive human SK-OV-3 cells in DMEM medium at 6:4 ratio assessed as decrease in fluorescence intensity incubated for 72 hrs by enzymatic immunoassay; assay type: functional, cell-based; conditions: dose 2.5-20 µM
SK-OV-3 [4] = assay: Effect on CD44 expression in CD44 positive human SK-OV-3 cells; assay type: functional, cell-based
SK-OV-3 [5] = assay: Inhibition of cell migration in human SK-OV-3 cells at 5 uM incubated for 24 hrs by microscope based wound healing assay; assay type: functional
SK-OV-3 [6] = assay: Antitumor activity against CD44 positive human SK-OV-3 cells assessed as reduction in cell viability incubated for 72 hrs by CCK8 assay; assay type: functional, cell-based; conditions: SK-OV-3, 72 h
SK-OV-3 [7] = assay: Cytotoxicity against CD44 positive human SK-OV-3 cells assessed as reduction in cell viability at 100 uM preincubated with 10 and 100 uM of 4S)-4-[[(2S)-1-[(2S)-1-[(2S)-2-[[(2S)-2-[[(2S)-1-[(2S)-2-acetamido-6-amino-hexanoyl]pyrrolidine-2-carbonyl]amino]-3-hydroxy-propanoyl]amino]-3-hydroxy-propanoyl]pyrrolidine-2-carbonyl]pyrrolidine-2-carbonyl]amino]-5-[[(1S)-1-[[2-[[2-[[2-[[2-[[2-[[2-[[2-[[2-[[2-[[2-[[(1S)-2-amino-1-methyl-2-oxo-ethyl]amino]-2-oxo-ethyl]-methyl-amino]-2-oxo-ethyl]-methyl-amino]-2-oxo-ethyl]-methyl-amino]-2-oxo-ethyl]-methyl-amino]-2-oxo-ethyl]-methyl-amino]-2-oxo-ethyl]-methyl-amino]-2-oxo-ethyl]-methyl-amino]-2-oxo-ethyl]-methyl-amino]-2-oxo-ethyl]-methyl-amino]-2-oxo-ethyl]-methyl-carbamoyl]-3-carboxy-propyl]amino]-5-oxo-pentanoic acid for 1 hrs followed by compound addition and measured after 24 hrs by CCK8 assay; assay type: functional, cell-based
SK-OV-3/CDDP [8] = assay: Reduction in intracellular GSH level in human SK-OV-3 cells at 5 uM incubated for 36 hrs; assay type: functional, cell-based
SK-OV-3 [9] = assay: Antitumor activity against human SK-OV-3 cells xenografted in nude mouse assessed as tumor growth inhibition at 35 microg/kg, iv administered every 2 days for 21 days; assay type: functional, organism-based; conditions: dose 35.0 µg/kg, time 21.0 day
A2780 [10] = assay: Binding affinity to CD44 negative human A2780 cells at 5 uM incubated for 1 hrs by flow cytometric analysis; assay type: functional, cell-based
[11] = molecular target: CD44 antigen (Homo sapiens) (UniProt P16070); assay: Binding affinity to CD44 positive human SK-OV-3 cells at 5 uM incubated for 1 hrs by flow cytometric analysis; assay type: cell-based
SK-OV-3 [12] = assay: Antitumor activity against human SK-OV-3 cells xenografted in nude mouse assessed as reduction in Nanog level administered intravenously every 2 days for 21 days by hematoxylin based immunohistochemistry analysis; assay type: functional, cell-based; conditions: route iv, time 21.0 day
SK-OV-3/CDDP [13] = assay: Sensitization of cisplatin-induced antiproliferative activity against human SK-OV-3/CDDP cells assessed as reduction in cell viability at 1 uM incubated for 72 hrs by CCK8 assay; assay type: functional, cell-based
SK-OV-3 [14] = assay: Inhibition of cell invasion in human SK-OV-3 cells incubated for 24 hrs by crystal violet staining based transwell invasion assay; assay type: functional; conditions: dose 5.0 µM
SK-OV-3/CDDP [15] = assay: Cytotoxicity against human SK-OV-3/CDDP cells assessed as inhibition of cell proliferation incubated for 72 hrs by CCK8 assay; assay type: functional, cell-based
SK-OV-3 [16] = assay: Inhibition of AKT phosphorylation in human SK-OV-3 cells at 5 uM incubated for 24 hrs by Western blot analysis; assay type: cell-based
A2780 [17] = assay: Antitumor activity against CD44 negative human A2780 cells assessed as reduction in cell viability incubated for 72 hrs by CCK8 assay; assay type: functional, cell-based; conditions: A2780, 72 h
[18] = molecular target: Vascular endothelial growth factor receptor 2 (Homo sapiens) (UniProt P35968); assay: Inhibition of VEGFR2 phosphorylation in human SK-OV-3 cells at 5 uM incubated for 24 hrs by Western blot analysis; assay type: cell-based
SK-OV-3/CDDP [19] = assay: Antiproliferative activity against human SK-OV-3/CDDP cells; assay type: functional, cell-based
A2780 [20] = assay: Antitumor activity against CD44 negative human A2780 cells expressing GFP co-cultured with CD44 positive human SK-OV-3 cells in DMEM medium at 4:6 ratio assessed as decrease in fluorescence intensity incubated for 72 hrs by enzymatic immunoassay; assay type: functional, cell-based; conditions: dose 2.5-20 µM
A2780 [21] = assay: Antitumor activity against CD44 negative human A2780 cells co-cultured with CD44 positive human SK-OV-3 cells in DMEM medium at varying ratio assessed as inhibition of cell growth at 20 uM incubated for 72 hrs by enzymatic immunoassay relative to control; assay type: functional
SK-OV-3 [22] = assay: Downregulation of CD133 expression in human SK-OV-3 tumor stem cells at 10 uM incubated for 36 hrs by flow cytometric analysis; assay type: functional, cell-based
SK-OV-3 [23] = assay: Antiproliferative activity against human SK-OV-3 cells; assay type: functional, cell-based
SK-OV-3 [24] = assay: Antitumor activity against human SK-OV-3 cells xenografted in nude mouse assessed as reduction in oct-4 level administered intravenously every 2 days for 21 days by hematoxylin based immunohistochemistry analysis; assay type: functional, cell-based; conditions: route iv, time 21.0 day
SK-OV-3 [25] = assay: Inhibition of tumor sphere formation in agarose-treated human SK-OV-3 cells assessed as fold decrease in number of formed spheres at 0.5 to 5 uM incubated for 9 days by imaging analysis; assay type: functional; conditions: dose 0.5-5 µM; time 9 day
A2780 [26] = assay: Antitumor activity against CD44 negative human A2780 cells co-cultured with CD44 positive human SK-OV-3 cells in DMEM medium at 6:4 ratio assessed as induction of cell death incubated for 72 hrs by enzymatic immunoassay; assay type: functional, cell-based; conditions: dose 2.5-20 µM
SK-OV-3/CDDP [27] = assay: Induction of ROS generation in human SK-OV-3/CDDP cells at 5 uM; assay type: functional, cell-based
A2780 [28] = assay: Antitumor activity against CD44 negative human A2780 cells expressing GFP co-cultured with CD44 positive human SK-OV-3 cells in DMEM medium at 5:5 ratio assessed as decrease in fluorescence intensity incubated for 72 hrs by enzymatic immunoassay; assay type: functional, cell-based; conditions: dose 2.5-20 µM
[29] = Solubility of compound in water; assay type: physicochemical; conditions: buffer
A-431 = assay: Cytotoxicity against human A-431 cells assessed as inhibition of cell growth incubated for 72 hrs by CCK8 assay; assay type: functional, cell-based; conditions: A-431, 72 h
HeLa = assay: Cytotoxicity against human HeLa cells assessed as inhibition of cell growth incubated for 72 hrs by CCK8 assay; assay type: functional, cell-based
CAL-27 = assay: Cytotoxicity against human CAL-27 cells assessed as inhibition of cell growth incubated for 72 hrs by CCK8 assay; assay type: functional, cell-based; conditions: CAL-27, 72 h
SK-OV-3 [30] = assay: Inhibition of cell migration in human SK-OV-3 cells at 10 uM incubated for 24 hrs by microscope based wound healing assay; assay type: functional
MKN-45 = assay: Cytotoxicity against human MKN-45 cells assessed as inhibition of cell growth incubated for 72 hrs by CCK8 assay; assay type: functional, cell-based; conditions: MKN-45, 72 h
MDA-MB-231 = assay: Cytotoxicity against human MDA-MB-231 cells assessed as inhibition of cell growth incubated for 72 hrs by CCK8 assay; assay type: functional, cell-based; conditions: MDA-MB-231, 72 h
SK-OV-3 [31] = assay: Inhibition of cell invasion in human SK-OV-3 cells at 5 uM incubated for 24 hrs by crystal violet staining based transwell invasion assay; assay type: functional
DU-145 = assay: Cytotoxicity against human DU-145 cells assessed as inhibition of cell growth incubated for 72 hrs by CCK8 assay; assay type: functional, cell-based; conditions: DU-145, 72 h
A549 = assay: Cytotoxicity against human A549 cells assessed as inhibition of cell growth incubated for 72 hrs by CCK8 assay; assay type: functional, cell-based; conditions: A549, 72 h
HCCLM3 = assay: Cytotoxicity against human HCCLM3 cells assessed as inhibition of cell growth incubated for 72 hrs by CCK8 assay; assay type: functional, cell-based; conditions: HCCLM3, 72 h
ACHN = assay: Cytotoxicity against human ACHN cells assessed as inhibition of cell growth incubated for 72 hrs by CCK8 assay; assay type: functional, cell-based
MIA PaCa-2 = assay: Cytotoxicity against human MIA PaCa-2 cells assessed as inhibition of cell growth incubated for 72 hrs by CCK8 assay; assay type: functional, cell-based; conditions: MIA PaCa-2, 72 h
MCF7 = assay: Cytotoxicity against human MCF7 cells assessed as inhibition of cell growth incubated for 72 hrs by CCK8 assay; assay type: functional, cell-based; conditions: MCF7, 72 h

Sequence of Vascular endothelial growth factor receptor 2 (Homo sapiens) (P35968 whole entry): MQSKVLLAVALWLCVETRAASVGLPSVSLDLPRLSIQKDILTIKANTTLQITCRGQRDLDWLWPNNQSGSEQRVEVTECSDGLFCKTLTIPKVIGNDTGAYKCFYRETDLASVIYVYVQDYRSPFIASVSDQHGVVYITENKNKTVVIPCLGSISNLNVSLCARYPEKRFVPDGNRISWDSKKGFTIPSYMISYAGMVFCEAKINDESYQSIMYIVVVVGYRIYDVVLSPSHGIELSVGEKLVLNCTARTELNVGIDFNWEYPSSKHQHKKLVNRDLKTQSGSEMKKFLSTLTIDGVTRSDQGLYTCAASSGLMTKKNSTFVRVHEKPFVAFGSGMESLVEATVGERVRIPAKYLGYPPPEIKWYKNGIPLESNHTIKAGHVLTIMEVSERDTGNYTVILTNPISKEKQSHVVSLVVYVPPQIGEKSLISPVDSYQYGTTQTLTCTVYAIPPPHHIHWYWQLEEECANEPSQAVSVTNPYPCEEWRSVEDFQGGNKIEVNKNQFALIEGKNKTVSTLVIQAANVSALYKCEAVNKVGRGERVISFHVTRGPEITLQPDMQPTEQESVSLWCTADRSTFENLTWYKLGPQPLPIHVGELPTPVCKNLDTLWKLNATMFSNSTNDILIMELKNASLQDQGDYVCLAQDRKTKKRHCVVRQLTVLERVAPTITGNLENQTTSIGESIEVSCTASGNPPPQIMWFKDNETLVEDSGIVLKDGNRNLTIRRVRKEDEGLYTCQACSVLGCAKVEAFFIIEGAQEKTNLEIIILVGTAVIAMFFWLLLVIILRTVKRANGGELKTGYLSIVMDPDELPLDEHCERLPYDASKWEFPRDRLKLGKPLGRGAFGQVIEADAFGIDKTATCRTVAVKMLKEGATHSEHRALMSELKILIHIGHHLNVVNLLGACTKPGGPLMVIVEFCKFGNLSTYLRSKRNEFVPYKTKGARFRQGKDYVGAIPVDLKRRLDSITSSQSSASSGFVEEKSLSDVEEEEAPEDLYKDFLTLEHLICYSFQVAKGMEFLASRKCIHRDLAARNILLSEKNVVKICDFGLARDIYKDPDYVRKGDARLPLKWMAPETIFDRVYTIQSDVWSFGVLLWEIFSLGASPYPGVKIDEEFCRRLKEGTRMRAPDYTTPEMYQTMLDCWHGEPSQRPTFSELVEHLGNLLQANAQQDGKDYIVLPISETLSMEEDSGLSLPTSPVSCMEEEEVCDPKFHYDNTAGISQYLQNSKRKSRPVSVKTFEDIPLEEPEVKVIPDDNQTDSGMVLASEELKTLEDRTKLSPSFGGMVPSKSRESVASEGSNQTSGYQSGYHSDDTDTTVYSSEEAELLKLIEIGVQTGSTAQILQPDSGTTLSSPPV
Sequence of CD44 antigen (Homo sapiens) (P16070 whole entry): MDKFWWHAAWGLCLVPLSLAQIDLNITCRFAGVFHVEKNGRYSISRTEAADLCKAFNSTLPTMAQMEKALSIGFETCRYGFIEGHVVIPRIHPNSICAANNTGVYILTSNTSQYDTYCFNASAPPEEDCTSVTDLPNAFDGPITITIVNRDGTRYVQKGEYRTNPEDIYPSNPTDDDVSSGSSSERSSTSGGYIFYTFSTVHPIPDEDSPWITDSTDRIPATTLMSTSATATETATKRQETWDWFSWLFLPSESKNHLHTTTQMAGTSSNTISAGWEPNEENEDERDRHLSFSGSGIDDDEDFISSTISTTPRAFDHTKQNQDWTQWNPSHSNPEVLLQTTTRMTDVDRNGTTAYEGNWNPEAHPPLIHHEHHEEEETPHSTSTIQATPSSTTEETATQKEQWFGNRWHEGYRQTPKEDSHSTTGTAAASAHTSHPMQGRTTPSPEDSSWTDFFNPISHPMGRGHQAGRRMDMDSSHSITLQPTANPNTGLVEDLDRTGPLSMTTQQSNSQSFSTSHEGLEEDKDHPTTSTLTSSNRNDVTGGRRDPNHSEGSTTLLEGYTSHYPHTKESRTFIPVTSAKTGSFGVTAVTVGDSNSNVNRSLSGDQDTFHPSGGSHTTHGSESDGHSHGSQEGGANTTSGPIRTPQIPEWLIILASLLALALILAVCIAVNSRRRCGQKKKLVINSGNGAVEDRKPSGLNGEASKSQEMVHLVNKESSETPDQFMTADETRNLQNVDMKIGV

In the case of CC[C@@H](C(=O)[O-])C1CC[C@H](C)C([C@@H](C)[C@H](O)[C@H](C)C(=O)[C@H](CC)C2O[C@]3(C=C[C@@H](NC(=O)CCSSC[C@H](NC(=O)CN(C)C(=O)CN(C)C(=O)CN(C)C(=O)CN(C)C(=O)CN(C)C(=O)CN(C)C(=O)CN(C)C(=O)CN(C)C(=O)CN(C)C(=O)CN(C)C(=O)[C@H](CCC(=O)O)NC(=O)[C@H](CCC(=O)O)NC(=O)[C@@H]4CCCN4C(=O)[C@@H]4CCCN4C(=O)[C@H](CO)NC(=O)[C@H](CO)NC(=O)[C@@H]4CCCN4C(=O)[C@H](CCCCN)NC(C)=O)C(N)=O)[C@]4(CC[C@@](C)(C5CC[C@](O)(CC)[C@H](C)O5)O4)O3)[C@H](C)C[C@@H]2C)O1.[Na+] (stereo partly specified) (Ac-KPSSPPEE[Sar][Sar][Sar][Sar][Sar][Sar][Sar][Sar][Sar][Sar]C(X1)-NH2), the Activity (A2780 [1]) is reported as “Dose-Dependent Effect”, the Activity (A2780 [2]) is reported as “Dose-Dependent Effect” and the Activity (A2780 [3]) is reported as “Dose-Dependent Effect”. The Activity (SK-OV-3 [4]) was “inactive”, the inhibition (SK-OV-3 [5]) was “Active” and the IC50 (SK-OV-3 [6]) was 5.45 µM. The Activity (SK-OV-3 [7]) was “inactive”, the Activity (SK-OV-3/CDDP [8]) was “Active” and the Activity (SK-OV-3 [9]) was “Active”. For the same compound, the Activity (A2780 [10]) was “inactive”, the Activity [11] was “Active” and the Activity (SK-OV-3 [12]) was “Active”. For the same compound, the Activity (SK-OV-3/CDDP [13]) was “Active”, the inhibition (SK-OV-3 [14]) was “Dose-Dependent Effect” and the IC50 (SK-OV-3/CDDP [15]) was 6.09 µM. For the same compound, the inhibition (SK-OV-3 [16]) was “Active”, the IC50 (A2780 [17]) was 47.1 µM and the inhibition [18] was “Active”. For the same compound, the IC50 (SK-OV-3/CDDP [19]) was 18.7 µg/mL, the Activity (A2780 [20]) was “Dose-Dependent Effect” and the inhibition at 20 µM (A2780 [21]) was > 80%. The Activity (SK-OV-3 [22]) was “Active”, the IC50 (SK-OV-3 [23]) was 5.21 µg/mL and the Activity (SK-OV-3 [24]) was “Active”. For the same compound, the “fold change (FC)” value (SK-OV-3 [25]) was 4.6, the Activity (A2780 [26]) was “Dose-Dependent Effect” and the Activity (SK-OV-3/CDDP [27]) was “Active”. For the same compound, the Activity (A2780 [28]) was “Dose-Dependent Effect” and the solubility [29] was “Soluble”.
In the case of CC[C@@H](C(=O)[C@@H](C)[C@@H](O)[C@H](C)[C@@H]1O[C@@H]([C@@H](CC)C(=O)O)CC[C@@H]1C)[C@H]1O[C@]2(C=C[C@@H](O)[C@]3(CC[C@@](C)([C@H]4CC[C@](O)(CC)[C@H](C)O4)O3)O2)[C@H](C)C[C@@H]1C [SALINOMYCIN], the IC50 (A-431) is reported as 5.27 µM, the Activity (SK-OV-3 [4]) is reported as “inactive” and the inhibition (SK-OV-3 [5]) is reported as “inactive”. It also gave an IC50 (HeLa) of 25 µM, an IC50 (CAL-27) of 30.2 µM and an IC50 (SK-OV-3 [6]) of 12.4 µM. The inhibition (SK-OV-3 [30]) was “Active”, the IC50 (MKN-45) was 6.49 µM and the Activity (SK-OV-3/CDDP [13]) was “Active”. For the same compound, the IC50 (MDA-MB-231) was 0.9 µM, the inhibition (SK-OV-3 [31]) was “Active” and the IC50 (SK-OV-3/CDDP [15]) was 10.3 µM. For the same compound, the IC50 (DU-145) was 47.1 µM, the inhibition (SK-OV-3 [16]) was “Active” and the IC50 (A549) was 25.1 µM. For the same compound, the IC50 (HCCLM3) was 7.99 µM, the IC50 (A2780 [17]) was 0.16 µM and the inhibition [18] was “Active”. For the same compound, the IC50 (ACHN) was 26 µM, the Activity (SK-OV-3 [22]) was “Active” and the IC50 (MIA PaCa-2) was 5.03 µM. It also gave an IC50 (MCF7) of 9.89 µM.

Source: ChEMBL document CHEMBL5614385, “A peptide-salinomycin conjugate with a bystander effect reduces the stemness characteristics of ovarian cancer cells and enhances drug sensitivity” (Eur J Med Chem, 2024)
